Experimental data from the NIST ThermoML archive (doi:10.1021/je050333h).

Test: cn = amount concentration of the nth substance listed, in mol/dm3
Details: 101 kPa, Liquid; for speed of sound: Sing-around technique in a fixed-path interferometer

CCCCC(CC)COC(=O)CC(C(=O)OCC(CC)CCCC)S(=O)(=O)[O-].[Na+] (stereo not given) [sodium bis(2-ethylhexyl) sulfosuccinate] + CC(C)CC(C)(C)C
Details	kinematic viscosity [m2/s]	mass density [kg/m3]	speed of sound [m/s]
293.15 K, c1 = 0.0993	8.03e-07	704.23	1103.5
293.15 K, c1 = 0.2006	9.05e-07	718.92	1104
293.15 K, c1 = 0.302	1.04e-06	736.65	1105.7
293.15 K, c1 = 0.4037	1.21e-06	754.54	1107.9
293.15 K, c1 = 0.5242	1.52e-06	775.5	1111.5
293.15 K, c1 = 0.6067	1.83e-06	794.1	1115.2
293.15 K, c1 = 0.7046	2.28e-06	812.69	1120.4
293.15 K, c1 = 0.8053	2.96e-06	829.38	1126.2
293.15 K, c1 = 0.9065	4.07e-06	847.23	1133.6
293.15 K, c1 = 1.012	5.97e-06	865.07	1142.4
298.15 K, c1 = 0.0987	7.58e-07	700.09	1082.4
298.15 K, c1 = 0.1994	8.56e-07	714.76	1083.1
298.15 K, c1 = 0.3003	9.87e-07	732.48	1085.1
298.15 K, c1 = 0.4017	1.14e-06	750.77	1087.3
298.15 K, c1 = 0.5213	1.42e-06	771.2	1091.2
298.15 K, c1 = 0.6034	1.67e-06	789.8	1095
298.15 K, c1 = 0.701	2.1e-06	808.51	1100.4
298.15 K, c1 = 0.8013	2.76e-06	825.19	1106.5
298.15 K, c1 = 0.902	3.73e-06	843	1113.8
298.15 K, c1 = 1.007	5.27e-06	860.81	1123
303.15 K, c1 = 0.0981	7.23e-07	695.93	1061.6
303.15 K, c1 = 0.1983	8.13e-07	710.7	1062.4
303.15 K, c1 = 0.2986	9.27e-07	728.39	1064.5
303.15 K, c1 = 0.3988	1.07e-06	745.5	1066.9
303.15 K, c1 = 0.5185	1.32e-06	767	1071.1
303.15 K, c1 = 0.6002	1.56e-06	785.6	1075
303.15 K, c1 = 0.6974	1.93e-06	804.41	1080.5
303.15 K, c1 = 0.7972	2.53e-06	820.98	1086.5
303.15 K, c1 = 0.8975	3.43e-06	838.76	1094.1
303.15 K, c1 = 1.002	4.77e-06	856.54	1103.7
313.15 K, c1 = 0.097	6.55e-07	687.78	1020.3
313.15 K, c1 = 0.1956	7.34e-07	700.9	1021.5
313.15 K, c1 = 0.2946	8.29e-07	718.5	1024
313.15 K, c1 = 0.3949	9.53e-07	738.2	1026.6
313.15 K, c1 = 0.5111	1.17e-06	756.1	1031.3
313.15 K, c1 = 0.5932	1.35e-06	776.5	1035.6
313.15 K, c1 = 0.6899	1.67e-06	795.7	1041.3
313.15 K, c1 = 0.7889	2.12e-06	812.51	1048.1
313.15 K, c1 = 0.8884	2.79e-06	830.24	1055.8
313.15 K, c1 = 0.9921	3.89e-06	847.98	1065.5
323.15 K, c1 = 0.0959	5.95e-07	680.26	979.8
323.15 K, c1 = 0.1937	6.66e-07	694.2	981.2
323.15 K, c1 = 0.2919	7.5e-07	712	984.1
323.15 K, c1 = 0.3904	8.59e-07	729.7	987.1
323.15 K, c1 = 0.505	1.04e-06	747	992.3
323.15 K, c1 = 0.5858	1.19e-06	766.8	996.8
323.15 K, c1 = 0.6822	1.47e-06	786.9	1002.8
323.15 K, c1 = 0.7807	1.83e-06	804.04	1009.9
323.15 K, c1 = 0.8792	2.35e-06	821.7	1018
323.15 K, c1 = 0.982	3.09e-06	839.35	1028
